These results are taken from patent publication US20230250433A1, “METHODS AND COMPOSITIONS FOR TREATMENT OF APC-DEFICIENT CANCER” (Board of Regents, The University of Texas System, priority 2020, published 2023).

For one experiment, the system named is Raw264.7. Nature of the experiment: Transwell migration assay of macrophages in conditioned media. As to conditions: recombinant CXCL5 protein 50 ng, 36 hr. Type of experiment: cell-based, mouse. The method, then: Two-way ANOVA analysis. […] Dox food was applied at day 5 post-orthotopic injection to induce TDO2 knockdown in vivo. n=4 per group. n.s.P>0.05, *P<0.05, […], ****P<0.0001. two-tailed t-test. […] FIGS. 12D and 12E show quantification of macrophages (F4/80+; FIG. 12D) and M2 macrophages (CD206+; FIG. 12E) in tumors shown in FIG. 12C. CyTOF data analyzed by FlowJo. Data represent mean±s.d., n=3 per group. *P<0.05, **P<0.01. two-tailed t-test. […] Recombinant CXCL5 protein (50 ng) and SX-682 (1 μM) were added to harvested condition media for 36 hr. Scale bar, 100 μm. n=3 biological replicates. Quantification is shown in lower panel. n.s. P>0.05, ***P<0.001, ****P<0.0001. two-tailed t-test. […] Clondronate liposomes or control encapsome liposomes were given intraperitoneally (100 μl) at day 2 post-orthotopic injection and three times a week. […]
Macrophages (1×10^4 for Raw264.7 and BMDM) were suspended in serum-free culture medium and seeded into 24-well Transwell inserts ([…]). […] After 24 h, the migrated macrophages were fixed and stained with crystal violet (0.05%, sigma), and then counted as cells per field of view under microscope or measured as OD590 nm (expressed as migration index) after crystal violet was dissolved.

For a further experiment, the system named is Raw264.7 cells. In words: RT-qPCR of M2 macrophage signature genes in Raw264.7 cells with conditioned media. The class given is cell-based, mouse. The conditions noted are these: conditioned media from APC-KO MC38 cells, 30 h. The method, then:
(§1) Scale bars, 50μm. […] Scale bars, 100 μm. […] (isTDO2 and isTDO2/shCXCL5 #2 groups, n=7, isTDO2/shCXCL5 #3, n=8). ****P<0.0001. two-tailed t-test. […] (shControl and shCXCL5 #2 groups, n=7, shCXCL5 #3, n=8). ****P<0.0001. two-tailed t-test.
(§2) RNA was isolated from cells using Trizol (Invitrogen) following the manufacturer's instructions. RNA (200-500 ng) was first treated with RNase-free DNase I using the DNA-free kit (Ambion) to remove all genomic DNA, and then reverse-transcribed into cDNA using an ABI High Capacity cDNA RT Kit (Invitrogen). The cDNA was analyzed using real-time quantitative PCR (SYBR Green, Invitrogen) with an Applied Biosystems 7900 Sequence Detection System. Each reaction was performed in triplicate. The expression of each gene was normalized by that of mouse Actin or human GAPDH.

In a further experiment the test system is CT26. Nature of the experiment: Orthotopic co-injection of CT26 cells and Raw264.7 macrophages, tumor growth. Type of experiment: in vivo, mouse. As to conditions: Raw264.7 pre-treated with 100 ng of CXCL5 for 48 h before injection; BalB/CJ mice. The procedure:
(§3) The red box indicates Axl. […] Six replicates per group. two-tailed t-test. *P<0.05. […] Epithelial cells are stained with EpCam and indicated by GFP. X63 magnification. […] Total flux measurement of at the end point. **P<0.01. two-tailed t-test. […] Total flux measurement of tumors was done at the end point. **P<0.01. two-tailed t-test.
(§4) To evaluate whether secreted factors from cancer cells might upregulate Gas6 expression in macrophages, BMDMs were incubated with conditioned media from MC38 cell lines. […] (FIG. 15H). Finally, to validate the roles of Gas6 in promoting tumor growth in vivo, CT26 cell lines and two independent Raw 264.7 shGas6 cell lines were co-injected into syngeneic Balb/CJ mice (FIG. 15I).
Mice were grouped by 5 animals in large plastic cages and were maintained under pathogen-free conditions. All animal studies were performed with the approval of MD Anderson Cancer Center's Institutional Animal Care and Use Committee (IACUC). NSG (NOD.Cg-Prkdc^scid Il2rg^tm1Wjl/SzJ), C57BL/J6J, and BALB/cJ mice were purchased from Jackson laboratory (Stock No: 005557, 000664, 000651). Colorectal orthotopic xenograft tumor models were established by following protocol (Tseng et al., 2007, JoVE).

Experiment [1] relates to BMDM. Nature of the experiment: RT-qPCR analysis of Gas6 expression in BMDM. As to conditions: Kyn 1 mM, CXCL5 50 ng, Gas6 25 ng, 24 hr. The class given is cell-based, mouse. The method, then:
as §3, §4, §2
(In qPCR the cycle at which signal appears reflects the starting amount.)

The test system of experiment [2] is BMDM. In words: RT-qPCR of M2 macrophage signature genes in BMDM. Type of experiment: cell-based, mouse. The conditions noted are these: CXCL5 50 ng, Kyn 1 mM, 24 hr. The method, then: as §1, §2
Experiment [3] relates to APC-WT and APC-KO MC38 cells. Nature of the experiment: Cell viability assay with R428. The class given is cell-based, mouse. As to conditions: R428 0.5 μM, 48 h.
Description: as §3
(§5) Gas6 is a ligand of Axl and is secreted mainly by tumor-associated macrophages in the TME (Loges et al., 2010), raising the possibility that macrophage-derived Gas6 might activate Axl to support the growth of APC-deficient cancer cells.

A further experiment has as its target T1, Axl (Mus musculus, UniProt Q00993).
T1 construct: immunoblots for Axl and phospho-Axl in APC-WT and APC-KO MC38 cells after R428 treatment (0.2 μM, 24 h); endogenous in cells; host or cells: MC38 mouse colorectal cancer cells, APC-WT and isogenic APC-KO
T1 sequence (Q00993 19-888): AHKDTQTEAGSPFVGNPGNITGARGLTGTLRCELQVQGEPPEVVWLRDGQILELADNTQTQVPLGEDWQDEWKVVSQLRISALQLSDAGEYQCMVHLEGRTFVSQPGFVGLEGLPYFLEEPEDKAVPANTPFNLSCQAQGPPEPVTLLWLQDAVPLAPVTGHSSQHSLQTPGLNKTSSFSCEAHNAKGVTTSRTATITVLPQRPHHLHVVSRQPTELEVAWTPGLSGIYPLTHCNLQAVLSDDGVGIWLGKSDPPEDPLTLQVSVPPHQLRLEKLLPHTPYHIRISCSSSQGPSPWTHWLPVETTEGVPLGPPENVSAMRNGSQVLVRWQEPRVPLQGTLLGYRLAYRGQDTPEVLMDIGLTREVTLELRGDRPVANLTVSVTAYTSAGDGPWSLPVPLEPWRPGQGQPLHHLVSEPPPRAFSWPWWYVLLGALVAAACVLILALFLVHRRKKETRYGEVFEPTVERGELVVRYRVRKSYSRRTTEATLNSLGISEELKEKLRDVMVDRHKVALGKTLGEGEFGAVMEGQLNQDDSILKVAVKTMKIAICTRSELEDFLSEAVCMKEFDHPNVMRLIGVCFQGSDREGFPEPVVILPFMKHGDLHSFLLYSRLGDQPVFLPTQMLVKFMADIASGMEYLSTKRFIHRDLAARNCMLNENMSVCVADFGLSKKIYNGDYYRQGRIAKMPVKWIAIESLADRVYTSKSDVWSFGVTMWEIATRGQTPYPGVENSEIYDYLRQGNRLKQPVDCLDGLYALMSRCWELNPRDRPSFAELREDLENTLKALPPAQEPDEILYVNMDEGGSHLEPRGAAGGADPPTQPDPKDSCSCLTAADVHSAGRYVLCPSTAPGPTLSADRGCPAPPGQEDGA
In words: Immunoblots for Axl and phospho-Axl. The conditions noted are these: APC-WT and APC-KO MC38 cells; R428 0.2 μM 24 h; rmGAS6 24 h. The class given is cell-based.
Description: as §3, §5
Cell lysates were prepared with RIPA lysis buffer (Roche) with protease inhibitor […] Immunoblotting was performed following standard protocol. Antibodies were purchased from the indicated companies.
Background: In western blotting, separated proteins are transferred to a membrane and probed.

Experiment [4] concerns LS180 and HT-29 cell lines. In words: Colony formation assay with Gas6 and R428. The class given is cell-based, human. The conditions noted are these: Gas6 25 ng with R428 1 μM, 36 hr.
Description: as §3, §5
Colorectal cancer cell proliferation in vitro was assayed through colony formation. 1×10^3 cells were seeded in each well of 6-well plates and cultured for 5-7 days. At the end point, cells were fixed and stained with 0.5% crystal violet in 25% methanol for 1 hr. These studies were performed in triplicate.

Consider “CXCL5: recombinant CXCL5 protein, cytokine”, for which the “macrophage recruitment with CM from APC-KO TDO2 depleted MC38 cells” value with Raw264.7 was “rescue of macrophage recruitment”. In the experiment with Raw264.7 cells, the “M2 macrophage markers decreased by TDO2 knockdown” value is given as “rescued by CXCL5 supplementation”. Also, the “growth of CT26 tumors co-injected with pre-treated macrophages” value in the experiment on CT26 is on record as “promoted the growth of CT26 significantly”. Besides, the Gas6 expression entry in the experiment with BMDM [1] is recorded as “increased Gas6 expression”. For the same molecule, the M2 macrophage markers result in the experiment with BMDM [2] is listed as “M2 macrophage markers increased”.
As for `Nc1nc(Nc2ccc3c(c2)CCC(N2CCCC2)CC3)nn1-c1cc2c(nn1)-c1ccccc1CCC2` (centres unmarked) [R428], in experiment [3], the “sensitivity of APC-deficient vs APC-intact MC38 cells” value is given as “increased sensitivity”. Further, the Axl phosphorylation entry at Axl was “reduce Axl phosphorylation”. Further, the “effect on Gas6-promoted cancer cell growth” value in experiment [4] is on record as “reversed by R428 treatment”.
